“Also recorded” adds a separate entry of the source. No end group written: not given here.
What was measured:
Type in all cases: cell-based, mouse
Pre-ovulatory COCs [1] = experiment: Meiotic arrest of pre-ovulatory COCs cultured 18 hours with CNP-22 (Example 1)
From the text: (§1) For the collection of immature COCs, compact COCs of the first wave of follicular development were collected from small antral follicles of pre-pubertal mice (19-21 days-old), without prior gonadotropin administration. For the collection of pre-ovulatory COCs (controls), compact COCs were collected by puncturing large antral follicles of pre-pubertal female mice (25-27 days-old) following 48 hrs of priming with 2,5IU 2.5 IU equine Chronic Gonadotropin (eCG, Folligon, Intervet, Oss, The Netherlands). Collection medium consisted of Leibovitz L-15, containing 10% Heat-inactivated Foetal Bovine Serum (FBS), 100lU/ml 100 IU/ml penicillin, 100 μg/ml streptomycin (all from Life Technologies, Gent, Belgium) and supplemented with 200 μM 3-Isobutyl-1-methylxanthine (IBMX; Sigma, Schnelldorf, Germany) to prevent meiosis reinitiation during the period of collection and pre culture handling.
(§2) Basal culture medium for the culture of COCs (Pre-IVM and IVM phases) consisted of α-MEM, 2.5% FBS (both from Life Technologies, Gent, Belgium) and 5 ng/mL Insulin, 5 ug/mt ug/ml. Apo-Transferrin, 5 ng/mL Sodium selenite (All from Sigma, Schnelldorf, Germany).
(§3) At specified time-points oocytes were mechanically freed from compact or expanded cumulus cells by using a mouth controlled fine bore glass pipette. Meiotic reinitiation was analyzed by assessing the nuclear maturational stage under an inverted microscope equipped with a Hoffman modulation contrast system (Nikon, Tokyo, Japan). Nuclear maturation was scored as GV (Germinal vesicle stage), GVBD (when GV non visible), PB (first polar body observed in perivitelline space) or DEG (when the oocyte was degenerated).
(§4) Pre-ovulatory COCs, retrieved from gonadotropin-primed mice (aged 26-27 days-old), were placed in culture, for 18 hours, in presence of 0 (Control), 1, 10, 100 nM CNP-22 and in combination with 4 ng/mL EGF.

Pre-ovulatory COCs [2] = experiment: EGFR-dependent meiotic resumption of pre-ovulatory COCs in presence of CNP-22 and EGF; settings: for PB rate: 18 hours
From the text: as §1, §2
For experiments involving IVM, recombinant Epidermal growth Factor (r-EGF) (Roche; Mannheim, Germany) and recombinant mouse Epiregulin (EREG) (R&D systems Europe; Oxon, United Kingdom) were used as ovulatory stimuli and the cultures lasted 18 hrs.
as §3, §4
Pre-ovulatory COCs, retrieved from gonadotropin-primed mice, were placed in culture in absence (controls) or presence of 25 nM CNP-22 4 ng/mL EGF, and meiotic maturation was assessed at 2, 4 and 6 hours. While meiotic resumption increased from 2 to 6 hours in the control group, few GVBDs were induced in the CNP-22 EGF treated group (≤11%), within the same period of time (FIG. 2A).

Immature COCs = experiment: Meiotic arrest of immature COCs from small antral follicles, 48 hours culture
From the text: as §1, §2
as §3, with “degenerated). […]” for “degenerated).”
Immature COCs were retrieved from small antral follicles of female mice aged 19-20 days-old and placed in culture for 48 hours in presence of 25 nM CNP-22 and presence or absence of 10 nM 17-β-estradiol; additionally the effects of the further addition of 2.5 or 5 mlU/mL mIU/ml FSH and/or 50 ng/mL GDF9 were evaluated.

[3] = test system: COCs from early antral follicles; experiment: Cumulus-oocyte connections (transzonal projections) after capacitation culture with CNP or PDE3 inhibitor (Example 2); settings: 48 h culture, F-actin staining of zona pellucida, no FSH; listed as CNP
Description: Basal culture medium for the culture of COCs (Pre-IVM and IVM phases) consisted of α-MEM, 2.5% FBS (both from Life Technologies, Gent, Belgium) and 5 ng/mL Insulin, 5 ug/mL Apo-Transferrin, 5 ng/mL Sodium selenite (All from Sigma, Schnelldorf, Germany). Capacitation medium consisted of basal medium supplemented with either 25 nM CNP or 1 μM Org9935 or 1 μM Cilostamide in combination with 10 nM E2 17-β-estradiol. CNP was obtained from Phoenix Europe (Karlsruhe, Germany), while Cilostamide was obtained from Enzo Life Sciences (Antwerpen, Belgium). Since the aim of the experiment was to make evident potential differences between CNP and PDE3-inhibitors, avoiding potential interference of FSH was crucial, therefore the latter was omitted from capacitation medium. When tested in the presence of FSH, the latter masked the effect of CNP on the connection between the oocyte and surrounding layers of cumulus cells, in having itself a contribution to said connection which is even apparent in the presence of a PDE3-inhibitor (data not shown). […]
In FIG. 7 average pixel intensity was used as a tool to quantify positive actin staining (TZP) going through zona pellucida. […]

[4] = test system: cumulus-enclosed oocytes from early antral follicles; experiment: Developmental competence after capacitation culture with CNP or Cilostamide, IVM and IVF (Example 3); settings: 48 hours capacitation culture, IVM with EGF, IVF
Description: Immature cumulus-oocyte complexes were isolated from early antral follicles (from unstimulated 19-20 day-old mice). COCs were placed in basal culture medium for a period of 48 hours in presence of either CNP or Cilostamide (PDE3-Inhibitor); similar to example 2.
Following the capacitation culture, COCs were matured in presence of Epidermal growth factor (EGF) and in-vitro fertilized. Post fertilization embryo development was evaluated.
Acquisition of oocyte competence under each condition was evaluated by their capacity to mature, fertilize (2-cell rate) and to produce good quality blastocyst (by day 5 of embryo culture).
Differences in the rate of fertilization and blastocyst formation between CNP and Cilostamide groups were assessed by chi-square.

Preovulatory COCs [5] = experiment: Meiotic resumption after 18 hours, CNP-22 dose range (Example 4)
Description: The materials and methods used in this further example are accordingly in common with the materials and methods used in Example 1. Cumulus-oocyte complexes from 24-26 day-old mice were isolated from in vivo grown antral follicles post 48 h equine Chronic Gonadotropin stimulation (eCG, Folligon, Intervet, Oss, The Netherlands). Mice were injected with 2.5 IU eCG when they were 22-24 days-old. Intact COCs with at least 2 layers of cumulus cells were put in culture for a period of 18 hours in presence of the following doses of CNP: • Control (No CNP)* • 0.1 nM** • 1 nM • 10 nM • 50 nM** • 100 nM • 1 μM**
COCs were collected and cultured according to the previous dose experiments in mice, provided in the Example 1.
Differences in the rate of oocyte meiotic resumption (per meiotic stage) were assessed by ANOVA followed by a Tukey's Multiple Comparison Test, p<0.01. Percentages data were transformed (arcsine) before performing statistical analysis.
Oocyte meiotic arrest was confirmed by the presence of an intact germinal vesicle (GV) under the inverted microscope, […]

Preovulatory COCs [6] = experiment: Meiotic resumption after 18 hours, CNP-53 dose range (Example 5)
Description: The materials and methods used in this further example are accordingly in common with the materials and methods used in Example 4 but for the use of CNP-53 instead. Cumulus-oocyte complexes from 24-25 day-old mice were isolated from in vivo grown antral follicles post 48 h eCG stimulation. Mice were injected with 2.5 IU eCG when they were 22-23 days-old. Intact COCs were put in culture for a period of 18 hours in presence of the following doses of CNP-53: • Control (No CNP)* • 0.1 nM • 1 nM • 10 nM • 50 nM • 100 nM • 1 μM • Control 25 nM CNP-22*
*Two control conditions were included: 1) 25 nM CNP-22 (standard dose known and used in previous experiments to maintain meiotic arrest), 2) a control condition where CNP is not present in the culture media.
Differences in the rate of oocyte meiotic resumption (per meiotic stage) were assessed by ANOVA followed by a Tukey's Multiple Comparison Test, p<0.001. Percentages data were transformed (arcsine) before performing statistical analysis.

[7] = 1 nM, 10 nM, 50 nM and 100 nM, 18 hours

Substance: C-type natriuretic peptide (GLSKGCFGLKLDRIGSMSGLGC; ends and bridges not checked; cysteine pairing not given here; UniProt P23582 105-126, looked up) [CNP-22, 22 amino acid C-type natriuretic peptide, obtained from Phoenix Europe]
- GV rate at the end of culture (Pre-ovulatory COCs [1]; 1 nM CNP-22, 18 hours): 48%
- GV rate at the end of culture (Pre-ovulatory COCs [1]; 10 nM CNP-22, 18 hours): 93%
- GV rate at the end of culture (Pre-ovulatory COCs [1]; 100 nM CNP-22, 18 hours): 96%
- time meiotic arrest is maintained (Pre-ovulatory COCs [1]; pre-ovulatory COCs): at least 24 hours
- PB rate (Pre-ovulatory COCs [2]; 1 nM CNP-22 with 4 ng/mL EGF): 92%
- PB rate (Pre-ovulatory COCs [2]; 10 nM CNP-22 with 4 ng/mL EGF): 35%
- GVBDs induced (Pre-ovulatory COCs [2]; 25 nM CNP-22, 4 ng/mL EGF, 2 to 6 hours): ≤ 11%
- occurrence of PB oocytes (Pre-ovulatory COCs [2]; 25 nM CNP-22, 4 ng/mL EGF, 24 hours): 93%
- PB rate (Pre-ovulatory COCs [2]; 100 nM CNP-22 with 4 ng/mL EGF): 15%
- delay of EGFR-induced meiotic resumption vs control (Pre-ovulatory COCs [2]; COCs kept under meiotic arrest by CNP): 6 h
- oocytes maintained in meiotic arrest (Immature COCs; 1 nM, 10 nM, 25 nM, or 50 nM CNP, oocytes from the smallest size of follicles): ~100%
- GV rate (Immature COCs; 25 nM CNP alone, 48 hours): 26%
- maintenance of meiotic arrest in immature COCs (Immature COCs; CNP-22 alone, culture up to 48 hours (data not shown)): can maintain meiotic arrest for 24 hours but not for 48 hours
- transzonal projections / connectivity between oocytes and cumulus cells [3]: full with transzonal projections; also recorded: kept better the connectivity between oocytes and cumulus cells
- fertilization rate, CNP vs Cilostamide [4]: no difference
- blastocyst formed per fertilized egg, CNP vs Cilostamide ([4]; day 5): significantly higher
- percentage of oocytes at the GVBD-stage vs control (Preovulatory COCs [5]; 0.1 nM to 1 μM, 18 hours): No significant differences
- maintaining oocytes arrested at the GV stage (Preovulatory COCs [5]; 0.1 nM, 18 hours): suboptimal
- oocytes in meiotic arrest (GV rate) (Preovulatory COCs [5]; 1 nM CNP-22, 18 hours): 80%
- oocytes extruding the first polar body (PB rate) (Preovulatory COCs [5]; [7]): low proportion or lack
- oocytes in meiotic arrest (GV rate) (Preovulatory COCs [5]; 10 nM CNP-22, 18 hours): 98%
- oocytes in meiotic arrest (GV rate) (Preovulatory COCs [5]; 50 nM CNP-22, 18 hours): 94%
- oocytes in meiotic arrest (GV rate) (Preovulatory COCs [5]; 100 nM CNP-22, 18 hours): 87%
- maintaining oocytes arrested at the GV stage (Preovulatory COCs [5]; 1 μM, 18 hours): suboptimal
- rate of meiotic arrest in preovulatory oocytes (Preovulatory COCs [5]; dose interval 1 nM to 100 nM): above 80%
- oocytes under meiotic arrest (GV rate) (Preovulatory COCs [6]; 25 nM CNP-22 positive control, 18 hours): 75%

Substance: CNP-53: CNP analogue; endogenous form of C-type natriuretic peptide containing a 53-amino acid sequence (DLRVDTKSRAAWARLLQEHPNARKYKGANKKGLSKGCFGLKLDRIGSMSGLGC; ends and bridges not checked; cysteine pairing not given here; UniProt P23582 74-126, looked up)
- percentage of oocytes at the GVBD-stage vs control (Preovulatory COCs [6]; 0.1 nM to 1 μM, 18 hours): No significant differences
- maintaining oocytes arrested at the GV stage (Preovulatory COCs [6]; 0.1 nM, 18 hours): suboptimal
- oocytes under meiotic arrest (GV rate) (Preovulatory COCs [6]; 1 nM CNP-53, 18 hours): 66%
- proportion of oocytes extruding the first polar body vs control without CNP (Preovulatory COCs [6]; [7]): significant different
- oocytes under meiotic arrest (GV rate) (Preovulatory COCs [6]; 10 nM CNP-53, 18 hours): 98%
- oocytes under meiotic arrest (GV rate) (Preovulatory COCs [6]; 50 nM CNP-53, 18 hours): 72%
- oocytes under meiotic arrest (GV rate) (Preovulatory COCs [6]; 100 nM CNP-53, 18 hours): 69%
- maintaining oocytes arrested at the GV stage (Preovulatory COCs [6]; 1 μM, 18 hours): suboptimal

From patent publication USRE50172E1, “In vitro maturation of a mammalian cumulus oocyte complex” (Vrije Universiteit Brussel, priority 2014, dated 2024)
